Reference: patent publication US6897237B2, “MMP-12 inhibitors” (Shionogi & Co. Ltd., priority 2000, dated 2005)

Tests used:
MMP-13 catalytic domain = molecular target: T1, MMP-13 catalytic domain (Homo sapiens, UniProt P45452); test: Assay for inhibitory activities on MMPs (fluorogenic peptide substrate): MMP-13; type: biochemical; conditions: substrate MOCAc-Pro-Leu-Gly-Leu-A2Pr(DNP)-Ala-Arg-NH2
T1 construct: catalytic domain (^104Tyr˜^267Gly); His-tag; enterokinase digestion-site; made in house; host or cells: Escherichia coli
Method: (§1) In regard to MMP-13, mRNA was prepared from carcinoma cell SW1353 derived from human cartilage stimulate by IL-1, TNF and catalytic domain (^104Tyr˜^267Gly) was amplified with RT-PCR. This was cloned in Escherichia coli expression vector pTrc99AHE inserted with His-tag sequence and enterokinase digestion-site, induced and expressed by IPTG (Isopropyl-β-D-thiogalactopyranoside) and expressed in a insoluble fraction. Isolation of MMP-1.3 from a insoluble fraction was carried out by dissolving in modifier (6M urea) by a usual method and purification with metal chelate chromatography (Ni Chelateing Sepharose). And then removing modifier (6M urea) with dialyze and refolding of the enzyme spontaneously gave activated MMP-13.
(§2) The enzymatic activity on MMPs was analyzed by the method described in “C. Graham Knight, Frances Willenbrock and Gillian Murphy: A novel coumarin-labelled peptide for sensitive continuous assays of the matrix metalloproteinases: FEBS LETT., 296, (1992), 263-266”. The substrate: MOCAc-Pro-Leu-Gly-Leu-A2Pr(DNP)-Ala-Arg-NH2 was purchased from Peptide Institute, Inc., Osaka, Japan. The measurement of the inhibitory activities (IC50) was carried out by the following four methods;
(§3) (A) Reaction with substrate, enzyme (MMPs) and inhibitor
(§4) (B) Reaction with substrate and inhibitor, without enzyme
(§5) (C) Reaction with substrate and enzyme (MMPs), without inhibitor
(§6) (D) Reaction with substrate only
(§7) IC50 values were calculated by using the following formula and each fluorescence values of above four methods (A to D).
(§8) % inhibition={1−(A−B)/(C−D)}×100
(§9) IC50 means the concentration required to inhibit 50% of the enzyme activity.

MMP-8 catalytic domain = molecular target: T2, MMP-8 catalytic domain (Homo sapiens, UniProt P22894); test: Assay for inhibitory activities on MMPs (fluorogenic peptide substrate): MMP-8; type: biochemical; conditions: substrate MOCAc-Pro-Leu-Gly-Leu-A2Pr(DNP)-Ala-Arg-NH2
T2 construct: catalytic domain (^99Phe˜^262Gly); His-tag; enterokinase digestion-site; made in house; host or cells: Escherichia coli
T2 sequence (P22894 99-262): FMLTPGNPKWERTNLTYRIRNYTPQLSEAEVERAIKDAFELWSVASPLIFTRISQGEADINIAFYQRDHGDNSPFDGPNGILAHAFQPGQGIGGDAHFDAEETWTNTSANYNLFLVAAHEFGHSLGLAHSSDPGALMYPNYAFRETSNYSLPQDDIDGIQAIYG
Source text: In regard to MMP-8, catalytic domain (^99Phe˜^262Gly) was amplified with PCR using commercial available Human Bone Marrow cDNA. This was cloned in Escherichia. coli expression vector pTrc99AHE inserted with His-tag sequence and enterokinase digestion-site, induced and expressed by IPTG (Isopropyl-β-D-thiogalactopyranoside) and expressed in a insoluble fraction (Than F. Ho, M. Walid Qoronfleh, Robert C. Wahl, Trica A. Pulvino, Karen J. Vavra, Joe Falvo, Tracey M. Banks, Patricia G. Brake and Richard B. Ciccarelli: Gene expression, purification and characterization of recombinant human neutrophil collagenase. Gene 146, (1994) 297-301, Prepared by the a improved method of this material). Isolation of MMP-8 from insoluble fraction was carried out by dissolving in modifier (6M urea) by a usual method and purification with metal chelate chromatography. And then removing modifier (6M urea) with dialysis and refolding of the enzyme spontaneously gave activated MMP-8.
as §2, §3, §4, §5, §6, §7, §8, §9

MMP-12 catalytic domain = molecular target: T3, MMP-12 catalytic domain (Homo sapiens, UniProt P39900); test: Assay for inhibitory activities on MMPs (fluorogenic peptide substrate): MMP-12; type: biochemical; conditions: substrate MOCAc-Pro-Leu-Gly-Leu-A2Pr(DNP)-Ala-Arg-NH2
T3 construct: catalytic domain(^100Phe˜^263Gly); His-tag; enterokinase digestion-site; made in house; host or cells: Escherichia coli
T3 sequence (P39900 100-263): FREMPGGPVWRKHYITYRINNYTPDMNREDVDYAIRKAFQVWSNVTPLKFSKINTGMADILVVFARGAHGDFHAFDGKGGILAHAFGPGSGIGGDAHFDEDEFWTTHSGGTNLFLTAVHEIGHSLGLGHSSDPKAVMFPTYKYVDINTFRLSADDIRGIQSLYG
Method: as §1, with “MMP-12,” for “MMP-13, mRNA was prepared from carcinoma cell SW1353 derived from human cartilage stimulate by IL-1, TNF and”, “domain(^100Phe˜^263Gly)” for “domain (^104Tyr˜^267Gly)”, “RT-PCR from Human Placenta Total RNA.” for “RT-PCR.”, “MMP-12” for “MMP-1.3”, “dialysis” for “dialyze”, “MMP-12.” for “MMP-13.”
as §2, §3, §4, §5, §6, §7, §8, §9

MMP-1 = molecular target: T4, MMP-1 (Homo sapiens, UniProt P03956); test: Assay for inhibitory activities on MMPs (fluorogenic peptide substrate): MMP-1; type: biochemical; conditions: substrate MOCAc-Pro-Leu-Gly-Leu-A2Pr(DNP)-Ala-Arg-NH2
T4 construct: purchased Yagai
T4 sequence (P03956 100-469): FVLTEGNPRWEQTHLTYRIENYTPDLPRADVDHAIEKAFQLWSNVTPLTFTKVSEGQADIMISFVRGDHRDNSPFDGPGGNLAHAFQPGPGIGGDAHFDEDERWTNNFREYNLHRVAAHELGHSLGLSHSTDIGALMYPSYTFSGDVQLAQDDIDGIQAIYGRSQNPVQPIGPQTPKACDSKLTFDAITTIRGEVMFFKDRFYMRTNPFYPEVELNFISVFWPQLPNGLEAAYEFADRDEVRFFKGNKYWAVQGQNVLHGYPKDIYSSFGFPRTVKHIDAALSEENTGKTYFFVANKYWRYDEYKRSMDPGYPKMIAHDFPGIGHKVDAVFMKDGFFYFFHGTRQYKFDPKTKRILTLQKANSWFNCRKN
Method: MMP-1 was purchased from Yagai.
as §2, §3, §4, §5, §6, §7, §8, §9

MMP-9 = molecular target: T5, MMP-9 (Homo sapiens, UniProt P14780); test: Assay for inhibitory activities on MMPs (fluorogenic peptide substrate): MMP-9; type: biochemical; conditions: substrate MOCAc-Pro-Leu-Gly-Leu-A2Pr(DNP)-Ala-Arg-NH2
T5 construct: endogenous in cells; host or cells: HT1080 human fibrosarcoma cells, TPA-stimulated; purified in house from conditioned medium
T5 sequence (P14780 107-707 limits assumed): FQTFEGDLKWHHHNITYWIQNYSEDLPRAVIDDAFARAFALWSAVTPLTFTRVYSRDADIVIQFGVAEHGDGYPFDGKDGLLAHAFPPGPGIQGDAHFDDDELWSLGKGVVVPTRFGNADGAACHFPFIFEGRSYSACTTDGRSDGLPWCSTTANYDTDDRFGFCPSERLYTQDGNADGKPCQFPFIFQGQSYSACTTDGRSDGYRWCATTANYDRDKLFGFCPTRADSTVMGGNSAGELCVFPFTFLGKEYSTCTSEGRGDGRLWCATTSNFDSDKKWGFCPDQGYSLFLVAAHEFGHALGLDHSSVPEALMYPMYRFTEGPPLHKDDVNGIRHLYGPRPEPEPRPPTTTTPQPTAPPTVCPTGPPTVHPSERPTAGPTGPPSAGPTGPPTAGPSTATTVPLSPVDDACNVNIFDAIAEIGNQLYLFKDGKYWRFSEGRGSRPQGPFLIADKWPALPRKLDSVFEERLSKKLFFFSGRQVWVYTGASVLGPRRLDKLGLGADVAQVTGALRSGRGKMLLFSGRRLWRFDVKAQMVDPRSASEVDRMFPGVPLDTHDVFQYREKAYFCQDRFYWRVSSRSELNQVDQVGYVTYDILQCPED
Source text: MMP-9 was isolated and purified by using a combination of procedures described in previous reports as follows. Yasunori Okada, Yukio Gonoji, Katsumi Naka, Katsuro Tomita, Isao Nakanishi, Kazushi Iwata, Kyoko Yamashita, and Taro Hayakawa: Matrix metalloproteinase 9 (92-kDa gelatinase/type IV collagenase) from HT1080 human fibrosarcoma cells. Purification and activation of the precursor and enzymic properties. J. Biol. Chem., 267 (1.992) 21712-21719. Yasunori Okada, Tatsuhisa Morodomi, Jan J, Enghild, Ko Suzuki, Atsushi Yasui, Isao Nakanishi, Guy Salvesen and Hideaki Nagase: Matrix metalloproteinase 2 from human rheumatoid synovial fibroblasts. Purification and activation of the precursor and enzymic properties. Eur. J. Biochem. 194 (1990) 721-730. Robin V Ward, Rosalind M Hembry, John J Reynolds and Gillian Murphy: The purification of tissue inhibitor of metalloproteinase-2 from its 72 kDa progelatinase complex. Biochem. J. 278 (1991) 179-187.
Briefly, human fibrosarcoma ATCC HT1080 cell line was cultured to confluent in Dulbecco's Modified Medium (DMEM) containing 10% fetal-calf serum at 37° C. for 48 hours. Subsequently, the medium of confluent culture was changed to serum-free DMEM medium. To obtain MMP-9, Phorbol-12-myristate-13-acetate (TPA) must be added to this serum-free DMEM medium at a concentration of 50 ng/ml. The TPA treated medium was centrifuged at 3000 rpm for 15 min and the supernatant was concentrated to 450 ml by a Toyo-Roshi UP-20 apparatus with an ultrafiltration membrane. Then, proMMP-9 in this concentrated solution was purified by using columns of Gelatin-Sepharose and Concanavalin A-Sepharose. The pool containing proMMP-9 was dialyzed, concentrated (Toyo-Roshi UP-20) and applied to columns of Sephacryl S-200 and Green A matrix for the separation from TIMPs. The obtained proMMP-9 fraction was activated by TPCK-Trypsin (final conc. […] reaction mix.).
as §2, §3, §4, §5, §6, §7, §8, §9

MMP-2 = molecular target: T6, MMP-2 (Homo sapiens, UniProt P08253); test: Assay for inhibitory activities on MMPs (fluorogenic peptide substrate): MMP-2; type: biochemical; conditions: substrate MOCAc-Pro-Leu-Gly-Leu-A2Pr(DNP)-Ala-Arg-NH2
T6 construct: purchased Calbiochem-Novabiochem International, Inc
T6 sequence (P08253 110-660): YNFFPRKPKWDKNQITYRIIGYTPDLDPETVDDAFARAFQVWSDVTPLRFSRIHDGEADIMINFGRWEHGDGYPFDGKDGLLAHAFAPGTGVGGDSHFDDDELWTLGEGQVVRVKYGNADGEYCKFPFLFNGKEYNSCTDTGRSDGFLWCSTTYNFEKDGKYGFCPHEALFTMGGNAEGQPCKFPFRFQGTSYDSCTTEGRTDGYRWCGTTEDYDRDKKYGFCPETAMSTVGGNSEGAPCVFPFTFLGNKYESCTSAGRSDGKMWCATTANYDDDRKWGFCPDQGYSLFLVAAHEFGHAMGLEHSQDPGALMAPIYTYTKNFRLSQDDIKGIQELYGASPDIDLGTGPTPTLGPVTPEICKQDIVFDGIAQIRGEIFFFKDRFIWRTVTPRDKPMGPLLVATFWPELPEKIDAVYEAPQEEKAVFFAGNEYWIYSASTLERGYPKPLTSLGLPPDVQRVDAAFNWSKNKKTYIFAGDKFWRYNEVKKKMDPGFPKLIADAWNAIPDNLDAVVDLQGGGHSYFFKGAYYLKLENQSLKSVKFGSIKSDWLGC
Method: MMP-2 was purchased from Calbiochem-Novabiochem International, Inc.
as §2, §3, §4, §5, §6, §7, §8, §9

Row | SMILES | IC50 (MMP-13 catalytic domain) | IC50 (MMP-8 catalytic domain) | IC50 (MMP-12 catalytic domain) | IC50 (MMP-1) | IC50 (MMP-9) | IC50 (MMP-2) | melting point
1 | O=C(O)[C@@H](Cc1ccccc1)NS(=O)(=O)c1ccc(C#Cc2ccc3ccccc3c2)s1 [Compound B-1] | > 10000 nM | > 10000 nM | 42 nM | > 10000 nM | > 10000 nM | 820 nM | –
2 | CC(C)[C@H](NS(=O)(=O)c1ccc(C#Cc2ccc3ccccc3c2)cc1)C(=O)O [Compound A-1] | 300 nM | 570 nM | 7.6 nM | > 10000 nM | 770 nM | 400 nM | 171 to 173 °C
3 | C[C@H](NS(=O)(=O)c1ccc(C#Cc2ccc3ccccc3c2)s1)C(=O)O [Compound B-7] | > 10000 nM | 7790 nM | 160 nM | > 10000 nM | 6310 nM | 2030 nM | –
4 | CC(C)C[C@H](NS(=O)(=O)c1ccc(C#Cc2ccc3ccccc3c2)cc1)C(=O)O [Compound A-11] | 460 nM | 580 nM | 5.9 nM | > 10000 nM | 1270 nM | 370 nM | –
5 | CC(C)[C@@H](NS(=O)(=O)c1ccc(C#Cc2ccc3ccccc3c2)s1)C(=O)O [Compound B-4] | 640 nM | 540 nM | 11 nM | > 10000 nM | 530 nM | 240 nM | –
6 | O=C(O)[C@H](Cc1c[nH]c2ccccc12)NS(=O)(=O)c1ccc(C#Cc2ccc3ccccc3c2)cc1 [Compound A-15] | 890 nM | > 10000 nM | 32 nM | > 10000 nM | 900 nM | 460 nM | –
7 | O=C(O)[C@@H](Cc1ccccc1)NS(=O)(=O)c1ccc(-n2nnc(-c3ccc4ccccc4c3)n2)cc1 [Compound C-1] | 450 nM | > 10000 nM | 55 nM | > 10000 nM | > 10000 nM | 140 nM | –
8 | O=C(O)[C@H](Cc1ccccc1)NS(=O)(=O)c1ccc(C#Cc2ccc3ccccc3c2)cc1 [Compound A-3] | > 10000 nM | > 10000 nM | 21 nM | > 10000 nM | > 10000 nM | > 10000 nM | –
9 | O=C(O)CNS(=O)(=O)c1ccc(C#Cc2ccc3ccccc3c2)cc1 [Compound A-9] | 2880 nM | > 10000 nM | 69 nM | > 10000 nM | 1800 nM | 250 nM | –
